{"source": "patent US20180259530A1", "about": "“Method and kit for testing chronic myelogenous leukemia (CML), method for isolating TKI-resistant CML cells, and agent for reducing TKI-resistance of CML and method for screening the same” (The University of Tokyo, priority 2017, published 2018)", "type_in_all_cases": "cell-based, human", "key": {"CD34+ADAM8- cells": {"test_system": "CD34+ADAM8- cells", "assay": "Cell viability assay with GM6001, CD34+ADAM8- cells", "conditions": "GM6001 2.5 μM; FIG. 20", "description": "(§1) The cell viability assay and apoptosis assay were carried out according to the method described in Ma, L. et al., Sci. Transl. Med. 6, 252ral21(2014).\n(§2) CD34+ADAM8+ cells and CD34+ADAM8− cells were used for a cell viability assay in the absence of GM6001 (Merck Millipore) and in the presence of GM6001 at specific concentrations (2.5 μM, 5 μM, 20 μM). […] GM6001 was confirmed to have no effect on the cell viability of either CD34+ADAM8+ cells or CD34+ADAM8− cells, at a concentration of 2.5 μM."}, "CD34+ADAM8+ cells": {"test_system": "CD34+ADAM8+ cells", "assay": "Cell viability assay with GM6001, CD34+ADAM8+ cells", "conditions": "GM6001 2.5 μM; FIG. 20", "description": "as §1, §2"}, "[1]": {"test_system": "CD34+ADAM8+ cells (CML-CP9- and CML-CP23-derived)", "assay": "Cell viability assay with imatinib plus GM6001", "conditions": "1.0 μM imatinib and 2.5 μM GM6001 vs 1.0 μM imatinib alone; FIG. 21, 22", "description": "as §1"}, "[2]": {"test_system": "CD34+ADAM8+ CML cells of CML-CP patient", "assay": "Cell viability assay of CD34+ADAM8+ and CD34+ADAM8- cell fractions with imatinib", "conditions": "48 hours exposure to imatinib; FIG. 11", "description": "as §1"}, "[3]": {"test_system": "CD34+ADAM8+ CML cells of CML-CP patient", "assay": "Apoptosis assay of CD34+ADAM8+ and CD34+ADAM8- cell fractions with imatinib", "conditions": "48 hours exposure to imatinib; FIG. 12", "description": "as §1"}, "CML-pre-HPCs": {"test_system": "CML-pre-HPCs", "assay": "Apoptosis assay in hematopoietic differentiation of CML-iPSCs", "conditions": "5 μM imatinib, 48 hours from medium exchange; FIG. 5"}, "[4]": {"test_system": "mRNA transcribed from the ADAM8 gene in HL60AML cell line", "assay": "ADAM8 gene expression inhibition by shRNA (mRNA amount)", "conditions": "HL60, lentiviral shRNA, 72 hours puromycin selection; non-target_shRNA defined as 1; FIG. 18", "description": "After extraction of total RNA with RNAeasy reagent (QIAGEN), reverse transcription was performed with ReverTra Ace qPCR RT Master Mix (TOYOBO). The primer sequences used for PCR are shown below. Real-time quantitative PCRs were carried out in ABI-7000 Sequencing System with THUNDERBIRD SYBR qPCR Mix, following the manufacturer's instructions (TOYOBO). Each assay was performed in triplicate. 18S rRNA and β-actin were used as endogenous controls.\nThe amount of mRNA transcribed from the ADAM8 gene in the cells was measured after treatment of an HL60AML cell line with ADAM8_shRNA 1 (SEQ ID NO: 45), ADAM8_shRNA 2 (SEQ ID NO: 46) and ADAM8_shRNA_3 (SEQ ID NO: 47). The target sequences of ADAM8_shRNA_1, ADAM8_shRNA_2 and ADAM8_shRNA_3 are listed as SEQ ID NO: 49, 50 and 51, respectively. Specifically, pLKO.1-puro-CMV-tGFP (Sigma Aldrich Japan) incorporating DNA encoding shRNA was transferred into HEK293 cells together with pMISSION GAG POL (Sigma Aldrich Japan) and pMISSION VSV-G (Sigma Aldrich Japan), to obtain an shRNA-expressing lentivirus. The obtained lentivirus was used to infect HL60, 1 μg/ml puromycin was used for 72 hours of selection, and ADAM8 gene expression in the selected cells was analyzed. The expression level of the ADAM8 gene when using non-target_shRNA that targets a non-ADAM8 gene (SEQ ID NO: 48, target sequence: SEQ ID NO: 52) (indicated as “non-target” in the graph) was defined as 1."}}, "data": [{"compound": "CNC(=O)[C@H](Cc1c[nH]c2ccccc12)NC(=O)[C@@H](CC(=O)NO)CC(C)C", "note": "[GM6001, (2R)—N^4-Hydroxy-N^1-[(1S)-2-(1H-indol-3-ylmethyl)-2-(methylamino)-2-oxoethyl]-2-(2-methylpropyl)butanediamide]", "values": [{"measurement": "effect on cell viability of CD34+ADAM8- cells", "setting": "CD34+ADAM8- cells", "value": "no effect"}, {"measurement": "effect on cell viability of CD34+ADAM8+ cells", "setting": "CD34+ADAM8+ cells", "value": "no effect"}, {"measurement": "TKI resistance (cell viability) on inhibition of ADAM8 activity", "setting": "[1]", "value": "TKI resistance is lowered"}]}, {"compound": "Cc1ccc(NC(=O)c2ccc(CN3CCN(C)CC3)cc2)cc1Nc1nccc(-c2cccnc2)n1", "note": "[imatinib]", "values": [{"measurement": "imatinib resistance (cell viability) of ADAM8+ CML cells compared to ADAM8- CML cells", "setting": "[2]", "value": "greater imatinib resistance"}, {"measurement": "apoptosis induced by imatinib in ADAM8+ CML cells compared to ADAM8- CML cells", "setting": "[3]", "value": "suppressed"}, {"measurement": "apoptosis induction in CML-pre-HPCs", "setting": "CML-pre-HPCs", "value": "not induced to undergo apoptosis"}]}, {"compound": "ADAM8_shRNA_1: shRNA that inhibits expression of the ADAM8 gene, SEQ ID NO: 45, target sequence SEQ ID NO: 49 (CCGGGGACAAGCUAUAUCAGAAACUCUCGAGAGUUUCUGAUAUAGCUUGUCCUUUUU)", "values": [{"measurement": "knockdown of ADAM8 gene expression (mRNA)", "setting": "[4]", "value": "confirmed to have the ability to knockdown ADAM8"}]}, {"compound": "ADAM8_shRNA_2: shRNA that inhibits expression of the ADAM8 gene, SEQ ID NO: 46, target sequence SEQ ID NO: 50 (CCGGGGGCCUGGAGAUUUGGAAUAGCUCGAGCUAUUCCAAAUCUCCAGGCCCUUUUU)", "values": [{"measurement": "knockdown of ADAM8 gene expression (mRNA)", "setting": "[4]", "value": "confirmed to have the ability to knockdown ADAM8"}]}, {"compound": "ADAM8_shRNA_3: shRNA that inhibits expression of the ADAM8 gene, SEQ ID NO: 47, target sequence SEQ ID NO: 51 (CCGGGGAAUAGUCAGGACAGGUUCCCUCGAGGGAACCUGUCCUGACUAUUCCUUUUU)", "values": [{"measurement": "knockdown of ADAM8 gene expression (mRNA)", "setting": "[4]", "value": "confirmed to have the ability to knockdown ADAM8"}]}]}
